The values that follow come from ChEMBL document CHEMBL2311510, “A new single-photon emission computed tomography (SPECT) imaging agent for serotonin transporters: [(125)I]Flip-IDAM, (2-((2-((dimethylamino)methyl)-4-iodophenyl)thio)phenyl)methanol” (Bioorg Med Chem Lett, 2013).

The target in data set [1] is T1, Sodium-dependent serotonin transporter (Homo sapiens, UniProt P31645). The data set can be described thus: Inhibition of […] uptake at SERT (unknown origin) expressed in LLC-PK1 cell membranes. The data set is classed as cell-based.
Target sequence in this assay (P31645 whole entry): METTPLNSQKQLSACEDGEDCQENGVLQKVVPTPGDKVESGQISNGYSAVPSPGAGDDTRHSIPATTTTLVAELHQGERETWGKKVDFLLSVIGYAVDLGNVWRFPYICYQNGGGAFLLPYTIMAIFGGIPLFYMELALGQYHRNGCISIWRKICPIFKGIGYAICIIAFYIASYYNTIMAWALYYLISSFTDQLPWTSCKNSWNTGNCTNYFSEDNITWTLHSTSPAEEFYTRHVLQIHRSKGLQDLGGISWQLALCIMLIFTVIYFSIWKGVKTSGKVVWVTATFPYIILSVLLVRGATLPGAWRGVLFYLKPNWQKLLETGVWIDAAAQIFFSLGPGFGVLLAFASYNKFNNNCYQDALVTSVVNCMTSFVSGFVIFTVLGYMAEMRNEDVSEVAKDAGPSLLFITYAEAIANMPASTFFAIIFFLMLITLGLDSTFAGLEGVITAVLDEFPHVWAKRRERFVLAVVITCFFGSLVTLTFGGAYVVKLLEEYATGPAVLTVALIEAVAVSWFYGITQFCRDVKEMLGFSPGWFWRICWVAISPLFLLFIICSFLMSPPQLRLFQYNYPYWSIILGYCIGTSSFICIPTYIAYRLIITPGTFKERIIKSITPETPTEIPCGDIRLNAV
The next data set relates to Nucleic Acid. The data set can be described thus: Ratio of drug level in hypothalamus to cerebellum in rat measured 60 mins compound dose. The data set is classed as ADME, tissue-based. As to conditions: in vivo, 1 h.
Data set [2] concerns the target T1, Sodium-dependent serotonin transporter. The data set can be described thus: Binding affinity to SERT (unknown origin).
Target sequence in this assay (P31645 whole entry): as above
The target is the same in data set [3]. The data set can be described thus: Potency index, ratio of Ki of Flip-ADAM to Ki of compound for SERT (unknown origin).
Target sequence in this assay (P31645 whole entry, looked up): as the sequence (P31645 whole entry) above
Data set [4] shares this target. Briefly: Potency index, ratio of Ki of IDAM to Ki of compound for SERT (unknown origin).
Target sequence in this assay (P31645 whole entry, looked up): as the sequence (P31645 whole entry) above
The target is the same in data set [5]. The data set can be described thus: biochemical. Type of data set: cell-based, LLC-PK1.
Target sequence in this assay (P31645 whole entry): as above
Description: Inhibition of [125I]IDAM uptake at SERT (unknown origin) expressed in LLC-PK1 cell membranes

In data set [1], `CN(C)Cc1ccccc1Sc1ccc(I)cc1CO` showed an inhibition constant Ki of 0.1 nM.

Take `CN(C)Cc1ccccc1Sc1ccc([123I])cc1CO`: the Ratio in the data set with Nucleic Acid is on record as 2.76. The Ki in data set [2] worked out at 0.097 nM.

For `CN(C)Cc1cc(I)ccc1Sc1ccccc1CO`, the values for the Ratio Ki in data set [3] and in data set [4] were 33 and 3, respectively. Also, the Ki in data set [5] was 0.03 nM.

Consider `CN(C)Cc1cc(I)ccc1Sc1ccccc1N`, for which the Ki in data set [5] was found to be 1 nM.

`CN(C)Cc1ccccc1Sc1ccc([123I])cc1N` yielded a Ki in data set [2] of 0.013 nM.

With `O=C(OCCF)[C@H]1[C@@H](c2ccc(/C=C\I)cc2)C[C@H]2CC[C@H]1N2`, affinity in data set [2] was put at a Ki of 0.08 nM. This Ki is about 6.2-fold higher than that of the compound before.

A word on the Ki: it is the dissociation constant of the complex between target and ligand, obtained from inhibition or displacement.
